Measured values taken from PubChem BioAssay AID330 (DTP/NCI, 2004).
“And” between values parts separate entries of the source, which are not always exact repeats. Identical values can stand only once. Toxic doses and inconclusive results are not listed. The calls were made as follows: active = survival T/C of 150% or more; inactive = T/C below 125% in these data.

Tested on: P388 leukemia ip, CD2F1 mice, survival T/C
Test: NCI In Vivo Anticancer Drug Screen. Data for tumor model P388 Leukemia (intraperitoneal) in CD2F1 (CDF1) mice
Conditions: endpoint: median survival time, higher = longer survival
How it was run: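 Mice carrying the transplanted tumor received test compound or vehicle. Survival was recorded in each group, and the value is the treated-group measurement divided by that of the vehicle-treated control group.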

[1] = dose: 60.0 mg/kg/injection, schedule: Q01DX005 (ip), vehicle: saline with Tween-80
[2] = dose: 120.0 mg/kg/injection, schedule: Q01DX005 (ip), vehicle: saline with Tween-80
[3] = dose: 50.0 mg/kg/injection, schedule: Q01DX005 (ip), vehicle: saline with Tween-80
[4] = dose: 100.0 mg/kg/injection, schedule: Q01DX005 (ip), vehicle: saline with Tween-80
[5] = dose: 200.0 mg/kg/injection, schedule: Q01DX005 (ip), vehicle: saline with Tween-80
[6] = dose: 50.0 mg/kg/injection, schedule: Q01DX009 (ip), vehicle: Klucel (hydroxypropylcellulose) (HPC)
[7] = dose: 100.0 mg/kg/injection, schedule: Q01DX009 (ip), vehicle: Klucel (hydroxypropylcellulose) (HPC)
[8] = dose: 200.0 mg/kg/injection, schedule: Q01DX009 (ip), vehicle: Klucel (hydroxypropylcellulose) (HPC)
[9] = dose: 240.0 mg/kg/injection, schedule: Q01DX005 (ip), vehicle: saline with Tween-80
[10] = dose: 100.0 mg/kg/injection, schedule: Q01DX001 (ip), vehicle: Klucel (hydroxypropylcellulose) (HPC)
[11] = dose: 200.0 mg/kg/injection, schedule: Q01DX001 (ip), vehicle: Klucel (hydroxypropylcellulose) (HPC)
[12] = dose: 400.0 mg/kg/injection, schedule: Q01DX001 (ip), vehicle: Klucel (hydroxypropylcellulose) (HPC)
[13] = dose: 50.0 mg/kg/injection, schedule: Q01DX009 (ip), vehicle: saline with Tween-80
[14] = dose: 100.0 mg/kg/injection, schedule: Q01DX009 (ip), vehicle: saline with Tween-80
[15] = dose: 200.0 mg/kg/injection, schedule: Q01DX009 (ip), vehicle: saline with Tween-80
[16] = dose: 100.0 mg/kg/injection, schedule: Q04DX002 (ip), vehicle: saline with Tween-80
[17] = dose: 15.0 mg/kg/injection, schedule: Q01DX005 (ip), vehicle: saline with Tween-80
[18] = dose: 200.0 mg/kg/injection, schedule: Q01DX009 (ip), vehicle: saline
[19] = dose: 400.0 mg/kg/injection, schedule: Q01DX009 (ip), vehicle: saline
[20] = dose: 25.0 mg/kg/injection, schedule: Q01DX009 (ip), vehicle: Klucel (hydroxypropylcellulose) (HPC)

Measured: T/C

Cc1ccc(NC2OC(CO)C(O)C2O)c([N+](=O)[O-])c1 (centres undefined)
inactive: dose: 100.0 mg/kg/injection, schedule: Q01DX001 (ip), vehicle: saline 108 % of control | dose: 200.0 mg/kg/injection, schedule: Q01DX001 (ip), vehicle: saline 97 % of control | dose: 400.0 mg/kg/injection, schedule: Q01DX001 (ip), vehicle: saline 99 % of control

CCOC(CN1Cc2cc(OC)c(OC)cc2CC1c1ccc(OC)c(OC)c1)OCC (centres undefined)
inactive: [1] 95 % of control | [2] 92 % of control

O=C(N=Nc1ccccc1)NC1CCCCC1
inactive: [3] 100 % of control | [4] 101 % of control | [5] 100 % of control

O=[N+]([O-])c1ccc(N/N=C(\C(=N/Nc2ccc([N+](=O)[O-])cc2[N+](=O)[O-])c2ccccc2)c2ccccc2)c([N+](=O)[O-])c1
inactive: dose: 50.0 mg/kg/injection, schedule: Q04DX003 (ip), vehicle: saline with Tween-80 103 % of control | dose: 100.0 mg/kg/injection, schedule: Q04DX003 (ip), vehicle: saline with Tween-80 91 % of control | dose: 200.0 mg/kg/injection, schedule: Q04DX003 (ip), vehicle: saline with Tween-80 91 % of control

Cc1ccc(S(=O)(=O)NCCN(C)C)cc1
inactive: [6] 99 % of control | [7] 99 % of control | [8] 102 % of control | dose: 400.0 mg/kg/injection, schedule: Q01DX009 (ip), vehicle: Klucel (hydroxypropylcellulose) (HPC) 101 % of control

O=[N+]([O-])c1ccc(N=NN2CCOC2)cc1
inactive: [3] 99 % of control | [4] 103 % of control | [5] 105 % of control

CC1(C)N=C(N)N=C(N)N1c1cccc(CSc2ccccc2)c1
inactive: dose: 7.5 mg/kg/injection, schedule: Q01DX005 (ip), vehicle: Klucel (hydroxypropylcellulose) (HPC) 98 % of control | dose: 15.0 mg/kg/injection, schedule: Q01DX005 (ip), vehicle: Klucel (hydroxypropylcellulose) (HPC) 103 % of control | dose: 30.0 mg/kg/injection, schedule: Q01DX005 (ip), vehicle: Klucel (hydroxypropylcellulose) (HPC) 103 % of control

O=C(Nc1ccc(OCC2=NCCN2)cc1)c1ccc(C(=O)Nc2ccc(OCC3=NCCN3)cc2)cc1
inactive: [3] 108 % of control | [4] 103 % of control | [5] 105 % of control

COC(=O)c1[nH]c(=O)c(C#N)c(C(=O)OC)c1-c1ccccn1
inactive: [1] 93 % of control | [2] 92 % of control | [9] 92 % of control

O=Cc1c(Cl)n(C(=O)c2ccc(F)cc2)c2ccccc12
inactive: [10] 97 % of control | [11] 113 % of control | [12] 96 % of control

CCCCCCCCCCCCCC[n+]1ccc(C(N)=O)cc1
inactive: dose: 6.25 mg/kg/injection, schedule: Q01DX009 (ip), vehicle: saline with Tween-80 113 % of control | dose: 12.5 mg/kg/injection, schedule: Q01DX009 (ip), vehicle: saline with Tween-80 109 % of control | dose: 25.0 mg/kg/injection, schedule: Q01DX009 (ip), vehicle: saline with Tween-80 100 % of control

COC(CCC1CO1)OC (centres undefined)
inactive: [13] 100 % of control | [14] 96 % of control | [15] 99 % of control

O=C(O)CCCCC1CCSS1 (centres undefined)
inactive: dose: 15.63 mg/kg/injection, schedule: Q01DX005 (ip), vehicle: Klucel (hydroxypropylcellulose) (HPC) 103 % of control | dose: 31.25 mg/kg/injection, schedule: Q01DX005 (ip), vehicle: Klucel (hydroxypropylcellulose) (HPC) 103 % of control | dose: 62.5 mg/kg/injection, schedule: Q01DX005 (ip), vehicle: Klucel (hydroxypropylcellulose) (HPC) 94 % of control | dose: 125.0 mg/kg/injection, schedule: Q01DX005 (ip), vehicle: Klucel (hydroxypropylcellulose) (HPC) 97 % of control

CN=C(N)N/N=C/c1c2ccccc2cc2ccccc12
inactive: dose: 25.0 mg/kg/injection, schedule: Q04DX002 (ip), vehicle: saline with Tween-80 115 % of control | dose: 50.0 mg/kg/injection, schedule: Q04DX002 (ip), vehicle: saline with Tween-80 111 % of control | [16] 114 % of control

COc1nc(NC2OC(COC(C)=O)C(OC(C)=O)C(OC(C)=O)C2OC(C)=O)c(C(=O)CCl)c(=O)[nH]1 (centres undefined)
inactive: [1] 93 % of control | [2] 90 % of control | [9] 101 % of control

O=C1N=CC2(N=N2)C(=O)N1
active: dose: 3.75 mg/kg/injection, schedule: Q01DX005 (ip), vehicle: saline with Tween-80 161 % of control | dose: 7.5 mg/kg/injection, schedule: Q01DX005 (ip), vehicle: saline with Tween-80 155 % of control and 168 % of control | [17] 178 % of control and 190 % of control

O=C1CCC(c2ccccc2)=NN1
inactive: dose: 50.0 mg/kg/injection, schedule: Q01DX009 (ip), vehicle: saline 100 % of control | dose: 100.0 mg/kg/injection, schedule: Q01DX009 (ip), vehicle: saline 106 % of control | [18] 103 % of control | [19] 97 % of control

CCCCCCCCCCCCCCN1CCCN(CCCCCCCCCCCCCC)CC1
inactive: [1] 92 % of control | [2] 94 % of control | [9] 88 % of control

NCCCO[C@H]1CO[C@H]2[C@@H]1OC[C@H]2OCCCN
inactive: dose: 50.0 mg/kg/injection, schedule: Q01DX005 (ip), vehicle: saline 100 % of control | dose: 100.0 mg/kg/injection, schedule: Q01DX005 (ip), vehicle: saline 102 % of control

CC(C)OC(=O)NN(C(=O)OC(C)C)N(C)C
inactive: dose: 60.0 mg/kg/injection, schedule: Q01DX005 (ip), vehicle: Klucel (hydroxypropylcellulose) (HPC) 100 % of control | dose: 120.0 mg/kg/injection, schedule: Q01DX005 (ip), vehicle: Klucel (hydroxypropylcellulose) (HPC) 100 % of control | dose: 240.0 mg/kg/injection, schedule: Q01DX005 (ip), vehicle: Klucel (hydroxypropylcellulose) (HPC) 103 % of control

CN(C)C(C#N)C(=O)c1ccccc1 (centres undefined)
inactive: [20] 107 % of control | [6] 110 % of control | [7] 104 % of control

Nc1nc(Cl)c2[nH]c(Cl)nc2n1
inactive: dose: 12.5 mg/kg/injection, schedule: Q01DX005 (ip), vehicle: Klucel (hydroxypropylcellulose) (HPC) 104 % of control | dose: 25.0 mg/kg/injection, schedule: Q01DX005 (ip), vehicle: Klucel (hydroxypropylcellulose) (HPC) 102 % of control | dose: 50.0 mg/kg/injection, schedule: Q01DX005 (ip), vehicle: Klucel (hydroxypropylcellulose) (HPC) 100 % of control and 96 % of control | dose: 100.0 mg/kg/injection, schedule: Q01DX005 (ip), vehicle: Klucel (hydroxypropylcellulose) (HPC) 99 % of control

c1ccc2nc(-c3cnc4ccccc4n3)cnc2c1
inactive: [16] 95 % of control | dose: 200.0 mg/kg/injection, schedule: Q04DX002 (ip), vehicle: saline with Tween-80 90 % of control

c1ccc(-c2c3ccccc3c(-c3ccccc3)c3c(-c4ccccc4)c4ccccc4c(-c4ccccc4)c23)cc1
inactive: [17] 105 % of control | dose: 30.0 mg/kg/injection, schedule: Q01DX005 (ip), vehicle: saline with Tween-80 106 % of control | [1] 91 % of control and 94 % of control

CC(c1c[nH]c2ccccc12)N1CCCCC1 (centres undefined)
inactive: dose: 12.5 mg/kg/injection, schedule: Q01DX009 (ip), vehicle: Klucel (hydroxypropylcellulose) (HPC) 109 % of control | [20] 115 % of control | [6] 113 % of control

NC(CC(=O)O)C(=O)O (centres undefined)
inactive: [6] 103 % of control and 105 % of control | [7] 105 % of control and 91 % of control | [8] 91 % of control | [18] 100 % of control | [19] 100 % of control | dose: 800.0 mg/kg/injection, schedule: Q01DX009 (ip), vehicle: saline 90 % of control

CC(=O)NCCSc1nc(-c2ccccc2)c(-c2ccccc2)o1
inactive: [6] 95 % of control | [7] 104 % of control | [8] 101 % of control

CC(S)c1ccccc1 (centres undefined)
inactive: [13] 115 % of control | [14] 113 % of control | [15] 115 % of control

O=c1c(N=Nc2ccccc2Cl)c(O)n(-c2ccccc2Cl)c(=S)n1-c1ccc(Cl)cc1
inactive: [10] 109 % of control | [11] 104 % of control | [12] 96 % of control

CCOC(=O)CCCCc1cccc2ccccc12
inactive: dose: 50.0 mg/kg/injection, schedule: Q01DX009 (ip), vehicle: other 103 % of control | dose: 100.0 mg/kg/injection, schedule: Q01DX009 (ip), vehicle: other 100 % of control | dose: 200.0 mg/kg/injection, schedule: Q01DX009 (ip), vehicle: other 107 % of control
